Values joined by “and” are separate entries in the source; they are usually repeats but may differ in a detail not shown here. Equal values may be shown once. Read-outs that look alike come from different tables or passages of the source.
Key:
[1] = tested on: Enterococcus faecium 12204; test: Broth microdilution MIC; format: cell-based
Description: (§1) Assays were carried out by a broth microdilution method using a 96-well plate according to guidelines defined by the European Committee on Antimicrobial Susceptibility Testing as described here. Overnight cultures of strains were grown in tryptic soy broth (TSB) at 37° C. The overnight cultures were diluted to a concentration of 1×10^6 bacteria/ml (OD600=0.01) in TSB media. To each well on 96 well plates, 100 μl of bacterially infected media at a concentration of 1×10^6/ml and compounds at various concentrations were added. An uninfected control (i.e. no bacteria) was also included. The plates were incubated at 37° C. wrapped in parafilm for 20 hrs. The growth was assessed by measuring the absorbance at 600 nm. The minimum inhibitory concentration (MIC) was determined to be the lowest concentration of compound that inhibits visible bacterial growth.

[2] = tested on: Klebsiella pneumoniae M6; test: Broth microdilution MIC; format: cell-based
Description: as §1

[3] = tested on: Acinetobacter baumannii 17978; test: Broth microdilution MIC; format: cell-based
Description: as §1

[4] = tested on: Enterococcus faecalis 775; test: Broth microdilution MIC; format: cell-based
Description: as §1

[5] = tested on: Klebsiella pneumoniae 13368; test: Broth microdilution MIC; format: cell-based
Description: as §1

[6] = tested on: Pseudomonas aeruginosa 13437; test: Broth microdilution MIC; format: cell-based
Description: as §1

[7] = tested on: MSSA 9144; test: Broth microdilution MIC; format: cell-based; conditions: Staphylococcus aureus
Description: as §1

[8] = tested on: Acinetobacter baumannii AYE; test: Broth microdilution MIC; format: cell-based
Description: as §1

[9] = tested on: Enterococcus faecalis 12201; test: Broth microdilution MIC; format: cell-based
Description: as §1

[10] = tested on: Escherichia coli NCTC12923; test: Broth microdilution MIC; format: cell-based
Description: as §1

[11] = tested on: EMRSA-16; test: Broth microdilution MIC; format: cell-based
Description: as §1

[12] = tested on: EMRSA-15; test: Broth microdilution MIC; format: cell-based
Description: as §1

[13] = tested on: Pseudomonas aeruginosa PA01; test: Broth microdilution MIC; format: cell-based
Description: as §1

[14] = tested on: A. thaliana seedlings; test: In planta seedling development and root length on GM/MS media; format: in vivo; conditions: for Normalised root / Root Length: individual plants 1-20
Description: Gamborg modified/Murashige Skoog (GM/MS) media and soil were prepared as according to Table 6.
A. thaliana seeds were sterilised including a 15 min wash step in 10% (v/v) commercial bleach without the addition of detergents. All plants were grown in a controlled environment room (CER) at 22±5° C. with 16 hrs: 8 hrs light: dark, 50-60% humidity under cool-white fluorescent light. Plants grown on soil were regularly watered and relocated within the CER.
Basta was employed as a positive control at a final recommended concentration of 10 μg/mL (50 μM). Negative controls included 0% (v/v) DMSO (H2O) and 1% (v/v) DMSO (vehicle). Media was poured into 100 mL plates and allowed to set before adding 20 sterilised seeds per plate. Seeds were then stratified at 4° C. for 72 hrs in a dark room prior to relocation into a CER.
The resulting growth plates were monitored daily and allowed to grow in an upright position for up to 14 days post stratification to determine the average root length using ImageJ analysis. Experiments were carried out in triplicates. Results were statistically validated using t-tests employing GraphPad Prism.

COc1ccccc1/C=C1\SC(=O)N(CC(=O)O)C1=O [Compound 3, (Z)-2-(5-(2-Methoxybenzylidene)-2,4-dioxothiazolidin-3-yl)acetic Acid]
MIC ([1]; Enterococcus faecium 12204, replicate 1, read-out: MIC #1): > 64 µg/mL | MIC ([1]; Enterococcus faecium 12204, replicate 2, read-out: MIC #2): > 64 µg/mL | MIC ([1]; Enterococcus faecium 12204, replicate 3, read-out: MIC #3): > 64 µg/mL | MIC ([2]; Klebsiella pneumoniae M6, replicate 1, read-out: MIC #1): > 64 µg/mL | MIC ([2]; Klebsiella pneumoniae M6, replicate 2, read-out: MIC #2): > 64 µg/mL | MIC ([2]; Klebsiella pneumoniae M6, replicate 3, read-out: MIC #3): > 64 µg/mL | MIC ([3]; Acinetobacter baumannii 17978, replicate 1, read-out: MIC #1): > 64 µg/mL | MIC ([3]; Acinetobacter baumannii 17978, replicate 2, read-out: MIC #2): > 64 µg/mL | MIC ([3]; Acinetobacter baumannii 17978, replicate 3, read-out: MIC #3): > 64 µg/mL | MIC ([4]; Enterococcus faecalis 775, replicate 1, read-out: MIC #1): > 64 µg/mL | MIC ([4]; Enterococcus faecalis 775, replicate 2, read-out: MIC #2): > 64 µg/mL | MIC ([4]; Enterococcus faecalis 775, replicate 3, read-out: MIC #3): > 64 µg/mL | MIC ([5]; Klebsiella pneumoniae 13368, replicate 1, read-out: MIC #1): > 64 µg/mL | MIC ([5]; Klebsiella pneumoniae 13368, replicate 2, read-out: MIC #2): > 64 µg/mL | MIC ([5]; Klebsiella pneumoniae 13368, replicate 3, read-out: MIC #3): > 64 µg/mL | MIC ([6]; Pseudomonas aeruginosa 13437, replicate 1, read-out: MIC #1): > 64 µg/mL | MIC ([6]; Pseudomonas aeruginosa 13437, replicate 2, read-out: MIC #2): > 64 µg/mL | MIC ([6]; Pseudomonas aeruginosa 13437, replicate 3, read-out: MIC #3): > 64 µg/mL | MIC ([7]; MSSA 9144, replicate 1, read-out: MIC #1): > 64 µg/mL | MIC ([7]; MSSA 9144, replicate 2, read-out: MIC #2): > 64 µg/mL | MIC ([7]; MSSA 9144, replicate 3, read-out: MIC #3): > 64 µg/mL | MIC ([8]; replicate 1, read-out: MIC #1): > 64 µg/mL | MIC ([8]; replicate 2, read-out: MIC #2): > 64 µg/mL | MIC ([8]; replicate 3, read-out: MIC #3): > 64 µg/mL | MIC ([9]; Enterococcus faecalis 12201, replicate 1, read-out: MIC #1): > 64 µg/mL | MIC ([9]; Enterococcus faecalis 12201, replicate 2, read-out: MIC #2): > 64 µg/mL | MIC ([9]; Enterococcus faecalis 12201, replicate 3, read-out: MIC #3): > 64 µg/mL | MIC ([10]; Escherichia coli NCTC12923, replicate 1, read-out: MIC #1): > 64 µg/mL | MIC ([10]; Escherichia coli NCTC12923, replicate 2, read-out: MIC #2): > 64 µg/mL | MIC ([10]; Escherichia coli NCTC12923, replicate 3, read-out: MIC #3): > 64 µg/mL | MIC ([11]; EMRSA-16, replicate 1, read-out: MIC #1): > 64 µg/mL | MIC ([11]; EMRSA-16, replicate 2, read-out: MIC #2): > 64 µg/mL | MIC ([11]; EMRSA-16, replicate 3, read-out: MIC #3): > 64 µg/mL | MIC ([12]; EMRSA-15, replicate 1, read-out: MIC #1): > 64 µg/mL | MIC ([12]; EMRSA-15, replicate 2, read-out: MIC #2): > 64 µg/mL | MIC ([12]; EMRSA-15, replicate 3, read-out: MIC #3): > 64 µg/mL | MIC ([13]; Pseudomonas aeruginosa PA01, replicate 1, read-out: MIC #1): > 64 µg/mL | MIC ([13]; Pseudomonas aeruginosa PA01, replicate 2, read-out: MIC #2): > 64 µg/mL | MIC ([13]; Pseudomonas aeruginosa PA01, replicate 3, read-out: MIC #3): > 64 µg/mL | Normalised root ([14]; 15.6 μM in GM/MS media): 126.8 and 79.33 and 8.429 and 111.7 and 109.2 and 119.2 and 125.6 and 130.3 and 102.2 and 104.4 and 74.72 and 87.31 and 77.74 and 72.45 and 127.9 and 91.64 and 101.7 and 3.856 and 113.4 and 59.09 | Root Length ([14]; 15.6 μM in GM/MS media): 4.242 cm and 2.654 cm and 0.282 cm and 3.737 cm and 3.653 cm and 3.988 cm and 4.202 cm and 4.361 cm and 3.42 cm and 3.494 cm and 2.5 cm and 2.921 cm and 2.601 cm and 2.424 cm and 4.28 cm and 3.066 cm and 3.403 cm and 0.129 cm and 3.794 cm and 1.977 cm | Normalised root ([14]; 31.3 μM in GM/MS media): 70.03 and 65.16 and 32.16 and 67.4 and 20.77 and 47.64 | Root Length ([14]; 31.3 μM in GM/MS media): 2.343 cm and 2.18 cm and 1.076 cm and 2.255 cm and 0.695 cm and 1.594 cm | Normalised root ([14]; 62.5 μM in GM/MS media): 64.32 and 82.41 and 69.91 and 82.88 and 64.47 and 34.82 and 79.21 and 80.49 and 78.28 and 63.37 and 57.96 and 45.82 and 15.99 and 51.14 and 20.03 and 32.64 | Root Length ([14]; 62.5 μM in GM/MS media): 2.152 cm and 2.757 cm and 2.339 cm and 2.773 cm and 2.157 cm and 1.165 cm and 2.65 cm and 2.693 cm and 2.619 cm and 2.12 cm and 1.939 cm and 1.533 cm and 0.535 cm and 1.711 cm and 0.67 cm and 1.092 cm | Normalised root ([14]; 125 μM in GM/MS media): 33.06 and 69.91 and 19.58 and 22.27 and 3.796 and 61.99 and 8.578 and 23.43 and 41.58 and 46.33 and 18.05 and 12.76 and 7.532 and 1.225 and 12.64 and 3.945 and 21.19 and 14.91 and 8.907 and 2.032 | Root Length ([14]; 125 μM in GM/MS media): 1.106 cm and 2.339 cm and 0.655 cm and 0.745 cm and 0.127 cm and 2.074 cm and 0.287 cm and 0.784 cm and 1.391 cm and 1.55 cm and 0.604 cm and 0.427 cm and 0.252 cm and 0.041 cm and 0.423 cm and 0.132 cm and 0.709 cm and 0.499 cm and 0.298 cm and 0.068 cm | Normalised root ([14]; 250 μM in GM/MS media): 18.35 and 35.03 and 19.34 and 7.741 and 3.318 and 12.7 and 3.049 and 7.532 and 27.32 and 17.58 and 13.9 and 3.916 and 9.923 and 8.07 and 5.619 and 3.497 and 4.513 and 2.66 and 3.378 and 3.676 | Root Length ([14]; 250 μM in GM/MS media): 0.614 cm and 1.172 cm and 0.647 cm and 0.259 cm and 0.111 cm and 0.425 cm and 0.102 cm and 0.252 cm and 0.914 cm and 0.588 cm and 0.465 cm and 0.131 cm and 0.332 cm and 0.27 cm and 0.188 cm and 0.117 cm and 0.151 cm and 0.089 cm and 0.113 cm and 0.123 cm | Normalised root ([14]; 500 μM in GM/MS media): 2.75 and 4.065 and 1.674 (2×) and 1.644 and 1.315 and 2.331 (2×) and 0.7472 and 2.272 and 2.062 and 1.076 and 1.435 and 2.63 and 2.092 and 1.584 and 5.021 and 1.375 | Root Length ([14]; 500 μM in GM/MS media): 0.092 cm and 0.136 cm and 0.056 cm (2×) and 0.055 cm and 0.044 cm and 0.078 cm (2×) and 0.025 cm and 0.076 cm and 0.069 cm and 0.036 cm and 0.048 cm and 0.088 cm and 0.07 cm and 0.053 cm and 0.168 cm and 0.046 cm | seedling development ([14]; concentrations 125 μM and higher): did not develop past the point of hypocotyl formation | development and growth of A. thaliana (leaves) ([14]; highest concentrations tested): lack of any chlorophyll containing leaves

— patent US20200068890A1 (Person to Whom the Inventor is Obligated to Assign, priority 2017, published 2020)
